Measured values: patent US7994185B2, “Benzene sulfonamide thiazole and oxazole compounds” (Glaxo Smith Kline LLC, priority 2008, dated 2011)
pIC50: −log10 of the molar value. Read-outs that look alike come from different tables or passages of the source.

Legend:
[1] = biological target: T1, BRAFV600E full-length (amino acids 2-766) (Homo sapiens, UniProt P15056, V600E); assay: B-Raf Accelerated MEK ATPase assay (BRAMA); type: biochemical; details: categorized; for IC50: Table 1b, read-out: B-Raf pIC50 (converted)
T1 construct: His6-tagged BRAFV600E full-length (amino acids 2-766); His6; made in house; host or cells: baculovirus expression system (insect cells)
Method in brief: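 Coupled-enzyme readout: ADP generated by MEK-mediated ATP hydrolysis, uncoupled from ERK phosphorylation, is linked to NADH oxidation through pyruvate kinase and lactate dehydrogenase.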

[2] = system: Human colon tumor cells (Colo205); assay: Cell growth inhibition assay (CellTiter-Glo), Colo205; type: cell-based
Method in brief: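 Growth is estimated from total cellular ATP measured by CellTiter-Glo luminescence after a 3-day compound exposure at 37 °C. Compounds are tested as 1:3 dilution series in 0.2% final DMSO, with inhibition expressed relative to vehicle-treated wells.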

[3] = system: Human melanoma cancer cells (SK-MEL-28); assay: Cell growth inhibition assay (CellTiter-Glo), SK-MEL-28; type: cell-based
[4] = B-Raf Activity, Table 1a, highest pIC50 for the one or more runs
[5] = B-Raf pIC50, Table 1b, later runs, average pIC50 for the one or more runs
[6] = COLO 205, 72 h, Table 2a, 3 days incubation, read-out: Activity in Colo205 Tumor Cells
[7] = COLO 205, Table 2b, later runs, average for the one or more runs, categorized, read-out: IC50 for Colo205
[8] = SK-MEL-28, 72 h, Table 3a, 3 days incubation, read-out: Activity in SK-MEL-28 Tumor Cells
[9] = SK-MEL-28, Table 3b, later runs, average for the one or more runs, categorized, read-out: IC50 for SK-MEL-28
[10] = later runs, average pIC50 for the one or more runs

T1 sequence (P15056 2-766 V600E): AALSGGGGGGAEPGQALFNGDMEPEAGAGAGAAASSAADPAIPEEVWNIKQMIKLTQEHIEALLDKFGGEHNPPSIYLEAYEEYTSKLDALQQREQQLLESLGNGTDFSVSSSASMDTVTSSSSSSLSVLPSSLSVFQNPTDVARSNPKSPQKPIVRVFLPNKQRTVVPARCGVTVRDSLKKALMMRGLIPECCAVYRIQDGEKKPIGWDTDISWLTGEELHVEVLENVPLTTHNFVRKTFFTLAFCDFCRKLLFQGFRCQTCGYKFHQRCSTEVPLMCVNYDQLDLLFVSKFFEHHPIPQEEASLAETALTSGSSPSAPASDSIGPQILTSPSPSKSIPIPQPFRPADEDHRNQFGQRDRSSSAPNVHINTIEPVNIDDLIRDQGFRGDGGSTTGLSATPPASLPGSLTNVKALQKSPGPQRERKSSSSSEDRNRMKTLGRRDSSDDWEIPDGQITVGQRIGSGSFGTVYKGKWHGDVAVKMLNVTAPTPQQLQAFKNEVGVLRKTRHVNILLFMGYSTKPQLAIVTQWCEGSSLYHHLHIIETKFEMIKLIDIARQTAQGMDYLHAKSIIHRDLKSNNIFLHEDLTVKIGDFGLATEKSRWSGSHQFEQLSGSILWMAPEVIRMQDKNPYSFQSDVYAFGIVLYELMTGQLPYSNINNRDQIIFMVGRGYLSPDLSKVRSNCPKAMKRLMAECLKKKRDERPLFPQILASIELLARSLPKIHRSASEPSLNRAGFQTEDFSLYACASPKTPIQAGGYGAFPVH

Compound	pIC50 [1, 4]	pIC50 [1, 5]	pIC50 [2, 6]	pIC50 [2, 7]	pIC50 [3, 8]	pIC50 [3, 9]	IC50 [1, 10]
Nc1nccc(-c2sc(C3CCC3)nc2-c2cccc(NS(=O)(=O)c3cc(F)ccc3F)c2F)n1 [Example 117]	> 7.00	≥ 8.50	> 7.00	> 7.00	> 7.00	> 7.00	–
Nc1nccc(-c2sc(C3CCC3)nc2-c2cccc(NS(=O)(=O)c3c(F)cccc3F)c2F)n1 [Example 118]	> 7.00	≥ 8.50	6.00 to 7.00	6.00 to 7.00	6.00 to 7.00	6.00 to 7.00	–
CNc1nccc(-c2sc(C(C)C)nc2-c2ccc(F)c(NS(=O)(=O)c3c(F)cccc3F)c2)n1 [Example 119]	6.00 to 7.00	6.00 to 7.50	< 6.00	–	< 6.00	5.00 to 6.00	–
CCCNc1nccc(-c2sc(C(C)C)nc2-c2ccc(F)c(NS(=O)(=O)c3cc(F)ccc3F)c2)n1 [Example 120]	> 7.00	–	6.00 to 7.00	6.00 to 7.00	6.00 to 7.00	6.00 to 7.00	3.16 to 31.6 nM
CC(C)CNc1nccc(-c2sc(C(C)C)nc2-c2ccc(F)c(NS(=O)(=O)c3cc(F)ccc3F)c2)n1 [Example 121]	> 7.00	–	6.00 to 7.00	6.00 to 7.00	6.00 to 7.00	6.00 to 7.00	3.16 to 31.6 nM
CC(C)c1nc(-c2ccc(F)c(NS(=O)(=O)c3cc(F)ccc3F)c2)c(-c2ccnc(NC3CC3)n2)s1 [Example 122]	> 7.00	6.00 to 7.50	< 6.00	5.00 to 6.00	< 6.00	5.00 to 6.00	–
CC(C)c1nc(-c2ccc(F)c(NS(=O)(=O)c3cc(F)ccc3F)c2)c(-c2ccnc(NC3CCN(C)CC3)n2)s1 [Example 123]	> 7.00	6.00 to 7.50	6.00 to 7.00	6.00 to 7.00	< 6.00	5.00 to 6.00	–
CC(C)c1nc(-c2ccc(F)c(NS(=O)(=O)c3cc(F)ccc3F)c2)c(-c2ccnc(NC3CCN(C(=O)OC(C)(C)C)CC3)n2)s1 [Example 124]	> 7.00	6.00 to 7.50	6.00 to 7.00	6.00 to 7.00	6.00 to 7.00	6.00 to 7.00	–
CC(C)c1nc(-c2ccc(F)c(NS(=O)(=O)c3cc(F)ccc3F)c2)c(-c2ccnc(NC3CCNCC3)n2)s1 [Example 125]	> 7.00	–	6.00 to 7.00	6.00 to 7.00	6.00 to 7.00	6.00 to 7.00	3.16 to 31.6 nM
CC(C)c1nc(-c2ccc(F)c(NS(=O)(=O)c3cc(F)ccc3F)c2)c(-c2ccnc(NC3CCN(CCS(C)(=O)=O)CC3)n2)s1 [Example 126]	> 7.00	6.00 to 7.50	6.00 to 7.00	6.00 to 7.00	6.00 to 7.00	6.00 to 7.00	–
CC(C)c1nc(-c2ccc(F)c(NS(=O)(=O)c3cc(F)ccc3F)c2)c(-c2ccnc(NCC3CCN(C(=O)OC(C)(C)C)CC3)n2)s1 [Example 127]	> 7.00	6.00 to 7.50	< 6.00	5.00 to 6.00	< 6.00	5.00 to 6.00	–
CC(C)c1nc(-c2ccc(F)c(NS(=O)(=O)c3cc(F)ccc3F)c2)c(-c2ccnc(NCC3CCNCC3)n2)s1 [Example 128]	> 7.00	–	< 6.00	5.00 to 6.00	< 6.00	–	3.16 to 31.6 nM
CC(C)c1nc(-c2ccc(F)c(NS(=O)(=O)c3cc(F)ccc3F)c2)c(-c2ccnc(NCC3CCN(S(C)(=O)=O)CC3)n2)s1 [Example 129]	> 7.00	–	6.00 to 7.00	6.00 to 7.00	6.00 to 7.00	6.00 to 7.00	3.16 to 31.6 nM
CC(C)(C)c1nc(-c2cccc(NS(=O)(=O)c3cc(F)ccc3F)c2F)c(-c2ccnc(NC3CCN(S(C)(=O)=O)CC3)n2)s1 [Example 130]	> 7.00	≥ 8.50	> 7.00	> 7.00	> 7.00	> 7.00	–
CC(C)c1nc(-c2ccc(F)c(NS(=O)(=O)c3cc(F)ccc3F)c2)c(-c2ccnc(NCCN3CCCCC3)n2)s1 [Example 131]	> 7.00	6.00 to 7.50	< 6.00	–	< 6.00	5.00 to 6.00	–
CC(C)c1nc(-c2ccc(F)c(NS(=O)(=O)c3cc(F)ccc3F)c2)c(-c2ccnc(NC3CC(C)(C)N(C)C(C)(C)C3)n2)s1 [Example 132]	> 7.00	≥ 8.50	6.00 to 7.00	6.00 to 7.00	6.00 to 7.00	6.00 to 7.00	–
CC(C)c1nc(-c2ccc(F)c(NS(=O)(=O)c3cc(F)ccc3F)c2)c(-c2ccnc(N[C@H]3CCCN(C(=O)OC(C)(C)C)C3)n2)s1 [Example 133]	6.00 to 7.00	6.00 to 7.50	< 6.00	5.00 to 6.00	< 6.00	5.00 to 6.00	–
CC(C)CNc1nccc(-c2sc(C(C)(C)C)nc2-c2cccc(NS(=O)(=O)c3c(F)cccc3F)c2F)n1 [Example 134]	> 7.00	–	6.00 to 7.00	6.00 to 7.00	6.00 to 7.00	6.00 to 7.00	3.16 to 31.6 nM
CC(C)Nc1nccc(-c2sc(C(C)(C)C)nc2-c2cccc(NS(=O)(=O)c3c(F)cccc3F)c2F)n1 [Example 135]	> 7.00	≥ 8.50	6.00 to 7.00	6.00 to 7.00	> 7.00	> 7.00	–
CC(C)Nc1nccc(-c2sc(N3CCOCC3)nc2-c2cccc(NS(=O)(=O)c3c(F)cccc3F)c2F)n1 [Example 136]	> 7.00	–	6.00 to 7.00	6.00 to 7.00	6.00 to 7.00	6.00 to 7.00	3.16 to 31.6 nM
CC(C)(C)c1nc(-c2cccc(NS(=O)(=O)c3cc(F)ccc3F)c2F)c(-c2ccnc(NC3CCOCC3)n2)s1 [Example 138]	> 7.00	≥ 8.50	> 7.00	> 7.00	< 6.00	> 7.00	–
CC(C)CNc1nccc(-c2sc(N3CCOCC3)nc2-c2ccc(F)c(NS(=O)(=O)c3cc(F)ccc3F)c2)n1 [Example 139]	> 7.00	–	> 7.00	6.00 to 7.00	> 7.00	6.00 to 7.00	3.16 to 31.6 nM
CC(C)c1nc(-c2ccc(F)c(NS(=O)(=O)c3ccccc3F)c2)c(-c2ccnc(N[C@H]3CC[C@H](NS(C)(=O)=O)CC3)n2)s1 [Example 140]	> 7.00	–	> 7.00	> 7.00	> 7.00	> 7.00	3.16 to 31.6 nM
CC(C)c1nc(-c2ccc(F)c(NS(=O)(=O)c3c(F)cccc3F)c2)c(-c2ccnc(N[C@H]3CC[C@H](NS(C)(=O)=O)CC3)n2)s1 [Example 141]	> 7.00	–	> 7.00	> 7.00	> 7.00	> 7.00	3.16 to 31.6 nM
Nc1nccc(-c2sc(N3CCS(=O)(=O)CC3)nc2-c2cccc(NS(=O)(=O)c3cc(F)ccc3F)c2F)n1 [Example 142]	> 7.00	≥ 8.50	> 7.00	> 7.00	> 7.00	> 7.00	–
C[C@@H]1CN(c2nc(-c3cccc(NS(=O)(=O)c4c(F)cccc4F)c3F)c(-c3ccnc(N)n3)s2)C[C@H](C)O1 [Example 143]	> 7.00	–	6.00 to 7.00	6.00 to 7.00	6.00 to 7.00	6.00 to 7.00	3.16 to 31.6 nM
